Laboratory results from patent US20250019350A1, “SYNTHESIS OF THE PROSTATE SPECIFIC MEMBRANE ANTIGEN (PSMA) RADIOLABELED INHIBITOR [18F]DCFPYL” (Progenics Pharmaceuticals, Inc, priority 2023, published 2025).
Where “and” joins values, the source holds several entries; their conditions need not be identical. Identical values can stand only once.

Experiment: Radiolysis / stability of [18F]DCFPyL over time by HPLC with radiodetection (RCP, free 18F, radioactive impurities)
Assay type: physicochemical
Details: for % RCP / RCP: 10 hours
Procedure: Those of ordinary skill in the art will be aware of techniques and systems for determining the radiochemical purity of a composition. In some cases, the radiochemical purity is determined using an HPLC associated with a radio-detector. Generally, the radiochemical purity is determined under ambient conditions (e.g., ambient temperature, ambient humidity, ambient light, etc.), such as in samples stored under such conditions.
Stability was assessed using reverse phase HPLC on a C18 column with a phosphate buffer/acetonitrile gradient mobile phase, and the elution profile was monitored using both UV and radiochemical detectors. Samples were analyzed either by direct injection onto the HPLC, dilution and injection or including the addition of tetraethylammonium fluoride (TEAF) into the sample before injection.
Known amounts of free ^18F either alone or spiked with TEAF were injected onto the analytic column and the eluent from the column collected over the course of a chromatogram and assaying the radioactivity using a Capintec. […] Adding TEAF into the analytic samples was incorporated into subsequent studies examining potential radiolysis of [^18F]DCFPyL to overcome some of the limitations of free ^18F quantification.
Analytical HPLC method was used. The method employs UV detection at 264 nm for chemical impurities, and an Eckert & Ziegler model B-FC-1000 gamma detector for radiochemical assays.

[1] = T = 0/1, 50 mg/mL ascorbic acid pH 5.8, 20% ethanol, 106.5 mCi/mL at EOS
[2] = T = 0, 0.5 mg/mL ascorbic acid pH 5.8, 20% ethanol, 105.8 mCi/mL at EOS
[3] = T = 0, 1 mg/mL ascorbic acid pH 5.8, 20% ethanol, 107.0 mCi/mL at EOS
[4] = T = 0, 5 mg/mL ascorbic acid pH 5.8, 20% ethanol, 99.0 mCi/mL at EOS
[5] = T = 0, 20 mg/mL sodium citrate, 20% ethanol, 104.8 mCi/mL at EOS, MPA = 0.25% of main peak
[6] = T = 0, 50 mg/mL ascorbic acid pH 5.8, 20% ethanol, 139.7 mCi/mL at EOS
[7] = T = 0 hr, 50 mg/mL ascorbic acid pH 5.8 in final product vial, 20% ethanol, 110 mCi/mL at EOS
[8] = T = 0 hr, 100 mg/mL ascorbic acid pH 2.0, 256 mCi/mL at EOS
[9] = T = 0 hr, 20% ethanol in saline, 52 mCi/mL at EOS
[10] = T = 0 hr, 20% ethanol in saline, 65 mCi/mL at EOS
[11] = T = 0 hr, 20% ethanol in saline, 85 mCi/mL at EOS
[12] = T = 0 hr, 100% ethanol, 325 mCi/mL at EOS
[13] = T = 0 hr, control without ascorbic acid, 36% ethanol in saline, 147 mCi/mL at EOS
[14] = T = 3, 50 mg/mL ascorbic acid pH 5.8, 20% ethanol, 106.5 mCi/mL at EOS
[15] = T = 4, 50 mg/mL ascorbic acid pH 5.8, 20% ethanol, 106.5 mCi/mL at EOS
[16] = T = 6, 50 mg/mL ascorbic acid pH 5.8, 20% ethanol, 106.5 mCi/mL at EOS

For `O=C(O)CC[C@H](NC(=O)N[C@@H](CCCCNC(=O)c1ccc([18F])nc1)C(=O)O)C(=O)O` [Lot 18F-DCFPyL, 2-(3-{1-carboxy-5-[(6-[18F]fluoro-pyridine-3-carbonyl)-amino]-pentyl}ureido)-pentanedioic acid], which “% RCP” value (3.3 mg/mL ascorbic acid in FPV, 10 mg/mL pH 2 in collection vial) is on record?
Its value is 97%.

What about the RCP (5 mg/mL, pH 6 ascorbate in the final product) of the same molecule?
Its RCP is 96%.

What about the “% RCP” value (5.6 mg/mL ascorbic acid in FPV, 10 mg/mL pH 2 in collection vial) of the same molecule?
The value was 98%.

What about the “% RCP” value (7.8 mg/mL ascorbic acid in FPV, 10 mg/mL pH 2 in collection vial) of the same molecule?
The value was 97%.

What about the RCP (pH 2 ascorbate in collection vial, 5 mg/mL ascorbate pH 6 in FPV) of the same molecule?
The RCP was 98%.

What about the “% RCP” value (pH 4.5) of the same molecule?
Its value is 98%.

What about the “% RCP” value (pH 5.5) of the same molecule?
Its value is 97%.

What about the “% RCP” value (pH 7.0) of the same molecule?
Its value is 97%.

And the “18F-DCFPyL (% RCP)” value [1]?
Its value is 100.00%.

And the “Free F-18” value [1]?
Its value is 0.00%.

What about the “18F-DCFPyL (% RCP)” value [2] of the same molecule?
The value was 100.00%.

And the “Free F-18” value [2]?
The value was 0.00%.

What about the “18F-DCFPyL (% RCP)” value [3] of the same molecule?
Its value is 99.68%.

What about the “Free F-18” value [3] of the same molecule?
Its value is 0.32%.

And the “Free F-18” value (T = 0, 1 mg/mL sodium ascorbate, 20% ethanol, 111.5 mCi/mL at EOS)?
The value was 0.57%.

What about the “18F-DCFPyL (% RCP)” value [4] of the same molecule?
The value was 100.00%.

What about the “Free F-18” value [4] of the same molecule?
Its value is 0.00%.

And the “Free F-18” value (T = 0, 20 mg/mL sodium citrate, 20% ethanol, 104.8 mCi/mL at EOS)?
Its value is 10.22%.

What about the “RT 3.4 radioactive impurity” value [5] of the same molecule?
Its value is “<MPA”.

What about the “RT 3.7 radioactive impurity” value [5] of the same molecule?
Its value is “<MPA”.

And the “18F-DCFPyL (% RCP)” value [6]?
Its value is 100.00%.

What about the “Free F-18” value [6] of the same molecule?
The value was 0.00%.

And the “RT 4.8 radioactive impurity” value (T = 0, 50 mg/mL ascorbic acid pH 5.8, 20% ethanol, 139.7 mCi/mL at EOS, MPA = 0.25% of main peak)?
Its value is “<MPA”.

And the “18F-DCFPyL (RCP)” value [7]?
The value was 99.7% and 99.73%.

And the “Free 18F” value [7]?
The value was “< LLQ”.

What about the “RT 5.0 radioactive impurity” value [7] of the same molecule?
Its value is 0.27%.

What about the “18F-DCFPyL (RCP)” value (T = 0 hr, 50 mg/mL ascorbic acid pH 5.8 in final product vial, 20% ethanol, 110 mCi/mL at EOS, listed as [^18F]DCFPYL) of the same molecule?
The value was 99.7%.

What about the “18F-DCFPyL (RCP)” value [8] of the same molecule?
The value was 99.7% and 99.71%.

What about the “Free 18F” value [8] of the same molecule?
Its value is 0.29%.

And the “18F-DCFPyL (RCP)” value (T = 0 hr, 100 mg/mL ascorbic acid pH 2.0, 256 mCi/mL at EOS, listed as [^18F]DCFPYL)?
The value was 99.7%.

What about the “18F-DCFPyL (RCP)” value [9] of the same molecule?
Its value is 99.31%.

What about the “Free F-18” value [9] of the same molecule?
Its value is 0.23%.

And the “RT 5.0 radioactive impurity” value [9]?
Its value is 0.46%.

And the “18F-DCFPyL (RCP)” value [10]?
Its value is 98.75%.

And the “Free F-18” value [10]?
The value was 0.91%.

What about the “RT 5.0 radioactive impurity” value [10] of the same molecule?
The value was 0.34%.

And the “18F-DCFPyL (RCP)” value [11]?
Its value is 97.56%.

What about the “Free F-18” value [11] of the same molecule?
The value was 2.10%.

And the “RT 5.0 radioactive impurity” value [11]?
The value was 0.34%.

And the “18F-DCFPyL (RCP)” value [12]?
Its value is 98.37%.

And the “Free F-18” value [12]?
The value was 1.63%.

What about the “18F-DCFPyL (RCP)” value [13] of the same molecule?
The value was 94% and 94.17%.

And the “Free F-18” value [13]?
Its value is 4.68%.

And the “RT 5.0 radioactive impurity” value [13]?
The value was 0.50%.

And the “RT 5.9 radioactive impurity” value [13]?
Its value is 0.64%.

What about the “18F-DCFPyL (RCP)” value (T = 0 hr, control without ascorbic acid, 36% ethanol in saline, 147 mCi/mL at EOS, listed as [^18F]DCFPYL) of the same molecule?
Its value is 94%.

And the “Free F-18” value (T = 0.5, 5 mg/mL sodium ascorbate, 20% ethanol, 114.6 mCi/mL at EOS)?
Its value is 0.39%.

What about the “18F-DCFPyL (% RCP)” value [14] of the same molecule?
The value was 100.00%.

And the “Free F-18” value [14]?
The value was 0.00%.

And the “18F-DCFPyL (% RCP)” value [15]?
The value was 99.75%.

What about the “Free F-18” value [15] of the same molecule?
Its value is 0.25%.

What about the “18F-DCFPyL (% RCP)” value [16] of the same molecule?
The value was 99.72%.

And the “Free F-18” value [16]?
The value was 0.28%.
